System: patients with advanced solid tumors
Assay: Phase I safety and tolerability
Format: in vivo, human
[1] = Cohort 5 (N=8), 60 mg QD 7 days + carboplatin
[2] = Cohort 6 (N=7), co-dosing 60 mg QD + carboplatin days 1–3
[3] = Cohort 6: 60 mg QD days 1–3 + carboplatin AUC5 day 1, 7 patients
[4] = Cohort 7 (N=6), co-dosing 40 mg QD + carboplatin days 1 and 2

## C[C@@H]1COCCN1c1cc(C2([S@](C)(=N)=O)CC2)nc(-c2cc[nH]c3nccc2-3)n1 [ceralasertib]
[1]
  TEAE Arthralgia, Grade 1–2: 2 (25) patients, n (%)
  TEAE Arthralgia, Grade ≥3: 0 patients, n (%)
  TEAE Aspartate aminotransferase increased, Grade 1–2: 1 (13) patients, n (%)
  TEAE Aspartate aminotransferase increased, Grade ≥3: 1 (13) patients, n (%)
  TEAE Constipation, Grade 1–2: 1 (13) patients, n (%)
  TEAE Constipation, Grade ≥3: 0 patients, n (%)
  TEAE Contusion, Grade 1–2: 0 patients, n (%)
  TEAE Contusion, Grade ≥3: 0 patients, n (%)
  TEAE Cough, Grade 1–2: 0 patients, n (%)
  TEAE Cough, Grade ≥3: 0 patients, n (%)
  TEAE Decreased appetite, Grade 1–2: 2 (25) patients, n (%)
  TEAE Decreased appetite, Grade ≥3: 0 patients, n (%)
  TEAE Diarrhea, Grade 1–2: 1 (13) patients, n (%)
  TEAE Diarrhea, Grade ≥3: 0 patients, n (%)
  TEAE Dizziness, Grade 1–2: 2 (25) patients, n (%)
  TEAE Dizziness, Grade ≥3: 0 patients, n (%)
  TEAE Dyspnea, Grade 1–2: 0 patients, n (%)
  TEAE Dyspnea, Grade ≥3: 0 patients, n (%)
  TEAE Fatigue, Grade 1–2: 3 (38) patients, n (%)
  TEAE Fatigue, Grade ≥3: 0 patients, n (%)
  TEAE Hypocalcemia, Grade 1–2: 2 (25) patients, n (%)
  TEAE Hypocalcemia, Grade ≥3: 0 patients, n (%)
  TEAE Insomnia, Grade 1–2: 0 patients, n (%)
  TEAE Insomnia, Grade ≥3: 0 patients, n (%)
  TEAE Lower respiratory tract infection, Grade 1–2: 1 (13) patients, n (%)
  TEAE Lower respiratory tract infection, Grade ≥3: 1 (13) patients, n (%)
  TEAE Nausea, Grade 1–2: 4 (50) patients, n (%)
  TEAE Nausea, Grade ≥3: 0 patients, n (%)
  TEAE Neutropenia, Grade 1–2: 0 patients, n (%)
  TEAE Neutropenia, Grade ≥3: 0 patients, n (%)
  TEAE Neutrophil count decreased, Grade 1–2: 0 patients, n (%)
  TEAE Neutrophil count decreased, Grade ≥3: 1 (13) patients, n (%)
  TEAE Platelet count decreased, Grade 1–2: 1 (13) patients, n (%)
  TEAE Platelet count decreased, Grade ≥3: 0 patients, n (%)
  TEAE Pyrexia, Grade 1–2: 2 (25) patients, n (%)
  TEAE Pyrexia, Grade ≥3: 0 patients, n (%)
  TEAE Thrombocytopenia, Grade 1–2: 4 (50) patients, n (%)
  TEAE Thrombocytopenia, Grade ≥3: 2 (25) patients, n (%)
  TEAE Upper respiratory tract infection, Grade 1–2: 0 patients, n (%)
  TEAE Upper respiratory tract infection, Grade ≥3: 0 patients, n (%)
  TEAE Vomiting, Grade 1–2: 0 patients, n (%)
  TEAE Vomiting, Grade ≥3: 0 patients, n (%)
  TEAE White blood cell count decreased, Grade 1–2: 0 patients, n (%)
  TEAE White blood cell count decreased, Grade ≥3: 1 (13) patients, n (%)
[2]
  TEAE Abdominal pain, Grade 1–2: 1 (14) patients, n (%)
  TEAE Abdominal pain, Grade ≥3: 0 patients, n (%)
  TEAE Alanine aminotransferase increased, Grade 1–2: 0 patients, n (%)
  TEAE Alanine aminotransferase increased, Grade ≥3: 0 patients, n (%)
  TEAE Anemia, Grade 1–2: 2 (29) patients, n (%)
  TEAE Anemia, Grade ≥3: 4 (57) patients, n (%)
  TEAE Any AE, Grade 1–2: 0 patients, n (%)
  TEAE Any AE, Grade ≥3: 7 (100) patients, n (%)
  TEAE Arthralgia, Grade 1–2: 0 patients, n (%)
  TEAE Arthralgia, Grade ≥3: 0 patients, n (%)
  TEAE Aspartate aminotransferase increased, Grade 1–2: 0 patients, n (%)
  TEAE Aspartate aminotransferase increased, Grade ≥3: 0 patients, n (%)
  TEAE Constipation, Grade 1–2: 1 (14) patients, n (%)
  TEAE Constipation, Grade ≥3: 0 patients, n (%)
  TEAE Contusion, Grade 1–2: 0 patients, n (%)
  TEAE Contusion, Grade ≥3: 0 patients, n (%)
  TEAE Cough, Grade 1–2: 0 patients, n (%)
  TEAE Cough, Grade ≥3: 0 patients, n (%)
  TEAE Decreased appetite, Grade 1–2: 0 patients, n (%)
  TEAE Decreased appetite, Grade ≥3: 0 patients, n (%)
  TEAE Diarrhea, Grade 1–2: 1 (14) patients, n (%)
  TEAE Diarrhea, Grade ≥3: 0 patients, n (%)
  TEAE Dizziness, Grade 1–2: 1 (14) patients, n (%)
  TEAE Dizziness, Grade ≥3: 0 patients, n (%)
  TEAE Dyspnea, Grade 1–2: 1 (14) patients, n (%)
  TEAE Dyspnea, Grade ≥3: 0 patients, n (%)
  TEAE Fatigue, Grade 1–2: 1 (14) patients, n (%)
  TEAE Fatigue, Grade ≥3: 0 patients, n (%)
  TEAE Hypocalcemia, Grade 1–2: 1 (14) patients, n (%)
  TEAE Hypocalcemia, Grade ≥3: 0 patients, n (%)
  TEAE Insomnia, Grade 1–2: 2 (29) patients, n (%)
  TEAE Insomnia, Grade ≥3: 0 patients, n (%)
  TEAE Lower respiratory tract infection, Grade 1–2: 1 (14) patients, n (%)
  TEAE Lower respiratory tract infection, Grade ≥3: 0 patients, n (%)
  TEAE Nausea, Grade 1–2: 6 (86) patients, n (%)
  TEAE Nausea, Grade ≥3: 1 (14) patients, n (%)
  TEAE Neutropenia, Grade 1–2: 1 (14) patients, n (%)
  TEAE Neutropenia, Grade ≥3: 5 (71) patients, n (%)
  TEAE Neutrophil count decreased, Grade 1–2: 0 patients, n (%)
  TEAE Neutrophil count decreased, Grade ≥3: 1 (14) patients, n (%)
  TEAE Platelet count decreased, Grade 1–2: 0 patients, n (%)
  TEAE Platelet count decreased, Grade ≥3: 0 patients, n (%)
  TEAE Pyrexia, Grade 1–2: 1 (14) patients, n (%)
  TEAE Pyrexia, Grade ≥3: 0 patients, n (%)
  TEAE Thrombocytopenia, Grade 1–2: 2 (29) patients, n (%)
  TEAE Thrombocytopenia, Grade ≥3: 4 (57) patients, n (%)
  TEAE Upper respiratory tract infection, Grade 1–2: 0 patients, n (%)
  TEAE Upper respiratory tract infection, Grade ≥3: 0 patients, n (%)
  TEAE Vomiting, Grade 1–2: 4 (57) patients, n (%)
  TEAE Vomiting, Grade ≥3: 1 (14) patients, n (%)
  TEAE White blood cell count decreased, Grade 1–2: 0 patients, n (%)
  TEAE White blood cell count decreased, Grade ≥3: 2 (29) patients, n (%)
[3]
  Number of DLTs: no DLTs
  SRC decision (tolerability): not tolerated beyond cycle 1
[4]
  TEAE Abdominal pain, Grade 1–2: 2 (33) patients, n (%)
  TEAE Abdominal pain, Grade ≥3: 0 patients, n (%)
  TEAE Alanine aminotransferase increased, Grade 1–2: 1 (17) patients, n (%)
  TEAE Alanine aminotransferase increased, Grade ≥3: 0 patients, n (%)
  TEAE Anemia, Grade 1–2: 1 (17) patients, n (%)
  TEAE Anemia, Grade ≥3: 4 (67) patients, n (%)
  TEAE Any AE, Grade 1–2: 1 (17) patients, n (%)
  TEAE Any AE, Grade ≥3: 5 (83) patients, n (%)
  TEAE Arthralgia, Grade 1–2: 1 (17) patients, n (%)
  TEAE Arthralgia, Grade ≥3: 0 patients, n (%)
  TEAE Aspartate aminotransferase increased, Grade 1–2: 1 (17) patients, n (%)
  TEAE Aspartate aminotransferase increased, Grade ≥3: 0 patients, n (%)

From paper PMC9401487 (Clinical Cancer Research, 2021)
